*1 amine or outer side, *2 acyl side, *3 side chain or, on linkers, in order; H or OH if unused. Where a SMILES comes first, the peptide text is derived from it. [ ]: non-standard residue; d: D form. NMeNva(5-imidazol-1-yl) = CN[C@@H](CCCn1ccnc1)C(=O)O; X23 = O=C([C@H](Cc1ccc(C(F)(F)F)nc1)N[*:1])[*:2]; Ala(pyrimidin-5-yl) = N[C@@H](Cc1cncnc1)C(=O)O; X25 = O=C([C@H](Cc1ccc(F)nc1)N[*:1])[*:2]; NMeAha = CN[C@@H](CCN=[N+]=[N-])C(=O)O; X2 = O=C([C@H](Cc1ccccc1F)O[*:1])[*:2]; X35 = CN([C@@H](CCCF)C(=O)[*:2])[*:1]; Phe(2-F) = N[C@@H](Cc1ccccc1F)C(=O)O; NMe3Pal = CN[C@@H](Cc1cccnc1)C(=O)O; X1 = O=C(C12CC(CN[*:1])(C1)C2)[*:2]; Aha = [N-]=[N+]=NCC[C@H](N)C(=O)O; NMeF = CN[C@@H](Cc1ccccc1)C(=O)O; PhLac = O=C(O)[C@@H](O)Cc1ccccc1; 3Pal = N[C@@H](Cc1cccnc1)C(=O)O; NMeNle = CCCC[C@H](NC)C(=O)O; NMeA = CN[C@@H](C)C(=O)O; Nle = CCCC[C@H](N)C(=O)O; Nva = CCC[C@H](N)C(=O)O
target: KRAS-G12D protein (Homo sapiens, UniProt P01116, G12D); assay: SOS-mediated nucleotide exchange assay (BODIPY-GDP / Tb-streptavidin TR-FRET); format: biochemical
Sequence (P01116 1-188 isoform P01116-2 G12D): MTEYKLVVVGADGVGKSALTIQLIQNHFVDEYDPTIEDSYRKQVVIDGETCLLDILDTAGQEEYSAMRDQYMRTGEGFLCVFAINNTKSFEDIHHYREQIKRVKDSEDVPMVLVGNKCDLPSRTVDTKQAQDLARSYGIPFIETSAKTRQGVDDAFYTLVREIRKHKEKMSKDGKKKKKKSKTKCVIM

Compound	EC50 [nM]
CCCC[C@@H]1NC(=O)[C@H](Cc2cccnc2)NC(=O)[C@H](CCCn2ccnc2)N(C)C(=O)[C@H](Cc2ccccc2)OC(=O)C23CC(CNC(=O)[C@H](Cc4ccccc4)N(C)C(=O)[C@H](CCCC)NC(=O)[C@H](Cc4ccccc4F)NC1=O)(C2)C3 [compound 233, cyclo(FLac-NMeNvalmid-3Pal-Nle-Phe2F-Nle-NMeF-amBCP)] (cyclo([3Pal][Nle][Phe(2-F)][Nle][NMeF][X1][PhLac][NMeNva(5-imidazol-1-yl)]))	28.9
CCCC[C@@H]1NC(=O)[C@H](Cc2ccc(F)nc2)NC(=O)[C@H](C)N(C)C(=O)[C@H](Cc2ccccc2)OC(=O)C23CC(CNC(=O)[C@H](Cc4ccccc4)N(C)C(=O)[C@H](CCC)NC(=O)[C@H](Cc4ccccc4F)NC1=O)(C2)C3 [compound 234, cyclo(FLac-NMeA-4F3Pal-Nle-Phe2F-Nva-NMeF-amBCP)] (cyclo([NMeA][X25][Nle][Phe(2-F)][Nva][NMeF][X1][PhLac]))	997
CCCC[C@@H]1NC(=O)[C@H](Cc2ccc(F)nc2)NC(=O)[C@H](C)N(C)C(=O)[C@H](Cc2ccccc2)OC(=O)C23CC(CNC(=O)[C@H](Cc4cccnc4)N(C)C(=O)[C@H](CCCC)NC(=O)[C@H](Cc4ccccc4F)NC1=O)(C2)C3 [compound 235, cyclo(FLac-NMeA-4F3Pal-Nle-Phe2F-Nle-NMe3Pal-amBCP)] (cyclo([NMe3Pal][X1][PhLac][NMeA][X25][Nle][Phe(2-F)][Nle]))	18.7
CCCC[C@@H]1NC(=O)[C@H](Cc2cccnc2)NC(=O)[C@H](C)N(C)C(=O)[C@H](Cc2ccccc2)OC(=O)C23CC(CNC(=O)[C@H](Cc4ccccc4)N(C)C(=O)[C@H](CCCC)NC(=O)[C@H](Cc4ccccc4F)NC1=O)(C2)C3 [compound 236, cyclo(FLac-NMeA-3Pal-Nle-Phe2F-Nle-NMeF-amBCP)] (cyclo([3Pal][Nle][Phe(2-F)][Nle][NMeF][X1][PhLac][NMeA]))	50.3
CCCC[C@@H]1NC(=O)[C@H](Cc2cncnc2)NC(=O)[C@H](C)N(C)C(=O)[C@H](Cc2ccccc2)OC(=O)C23CC(CNC(=O)[C@H](Cc4cccnc4)N(C)C(=O)[C@H](CCCC)NC(=O)[C@H](Cc4ccccc4F)NC1=O)(C2)C3 [compound 237, cyclo(FLac-NMeA-PyrimAla-Nle-Phe2F-Nle-NMe3Pal-amBCP)] (cyclo([NMe3Pal][X1][PhLac][NMeA][Ala(pyrimidin-5-yl)][Nle][Phe(2-F)][Nle]))	33.7
CCCC[C@@H]1NC(=O)[C@H](Cc2cccnc2)NC(=O)[C@H](CCN=[N+]=[N-])N(C)C(=O)[C@H](Cc2ccccc2)OC(=O)C23CC(CNC(=O)[C@H](Cc4cccnc4)N(C)C(=O)[C@H](CCCC)NC(=O)[C@H](Cc4ccccc4F)OC1=O)(C2)C3 [compound 238, cyclo(FLac-NMeDabN3-3Pal-Nle-F2FLac-Nle-NMe3Pal-amBCP)] (cyclo([3Pal][Nle][X2][Nle][NMe3Pal][X1][PhLac][NMeAha]))	5590
CCCC[C@@H]1NC(=O)[C@H](Cc2cccnc2)NC(=O)[C@H](CCCF)N(C)C(=O)[C@H](Cc2ccccc2)OC(=O)C23CC(CNC(=O)[C@H](Cc4cccnc4)N(C)C(=O)[C@H](CCCC)NC(=O)[C@H](Cc4ccccc4F)NC1=O)(C2)C3 [compound 239, cyclo(FLac-NMeNvaF-3Pal-Nle-Phe2F-Nle-NMe3Pal-amBCP)] (cyclo([3Pal][Nle][Phe(2-F)][Nle][NMe3Pal][X1][PhLac][X35]))	297
CCCC[C@@H]1NC(=O)[C@H](Cc2cncnc2)NC(=O)[C@H](CCCn2ccnc2)N(C)C(=O)[C@H](Cc2ccccc2)OC(=O)C23CC(CNC(=O)[C@H](Cc4cccnc4)N(C)C(=O)[C@H](CCCC)NC(=O)[C@H](Cc4ccccc4F)NC1=O)(C2)C3 [compound 240, cyclo(FLac-NMeNvalmid-PyrimAla-Nle-Phe2F-Nle-NMe3Pal-amBCP)] (cyclo([NMe3Pal][X1][PhLac][NMeNva(5-imidazol-1-yl)][Ala(pyrimidin-5-yl)][Nle][Phe(2-F)][Nle]))	27.2
CCCC[C@@H]1NC(=O)[C@H](Cc2ccc(C(F)(F)F)nc2)NC(=O)[C@H](CCN=[N+]=[N-])N(C)C(=O)[C@H](Cc2ccccc2)OC(=O)C23CC(CNC(=O)[C@H](Cc4cccnc4)N(C)C(=O)[C@H](CCCC)NC(=O)[C@H](Cc4ccccc4F)NC1=O)(C2)C3 [compound 241, cyclo(FLac-NMeDabN3-4CF33Pal-Nle-Phe2F-Nle-NMe3Pal-amBCP)] (cyclo([NMe3Pal][X1][PhLac][NMeAha][X23][Nle][Phe(2-F)][Nle]))	435
CCCC[C@@H]1NC(=O)[C@H](Cc2cncnc2)NC(=O)[C@H](CCN=[N+]=[N-])N(C)C(=O)[C@H](Cc2ccccc2)OC(=O)C23CC(CNC(=O)[C@H](Cc4cccnc4)N(C)C(=O)[C@H](CCCC)NC(=O)[C@H](Cc4ccccc4F)NC1=O)(C2)C3 [compound 242, cyclo(FLac-NMeDabN3-PyrimAla-Nle-Phe2F-Nle-NMe3Pal-amBCP)] (cyclo([NMe3Pal][X1][PhLac][NMeAha][Ala(pyrimidin-5-yl)][Nle][Phe(2-F)][Nle]))	80.9
CCCC[C@@H]1NC(=O)[C@H](Cc2ccccc2F)NC(=O)[C@H](CCN=[N+]=[N-])NC(=O)[C@H](Cc2cccnc2)NC(=O)[C@H](CCCC)N(C)C(=O)[C@H](Cc2ccccc2)OC(=O)C23CC(CNC(=O)[C@H](Cc4cccnc4)N(C)C1=O)(C2)C3 [compound 243, cyclo(FLac-NMeNle-3Pal-DabN3-Phe2F-Nle-NMe3Pal-amBCP)] (cyclo([3Pal][Aha][Phe(2-F)][Nle][NMe3Pal][X1][PhLac][NMeNle]))	3060
CCCC[C@@H]1NC(=O)[C@H](Cc2cccnc2)NC(=O)[C@H](C)N(C)C(=O)[C@H](Cc2ccccc2)OC(=O)C23CC(CNC(=O)[C@H](Cc4cccnc4)N(C)C(=O)[C@H](CCCC)NC(=O)[C@H](Cc4ccccc4F)NC1=O)(C2)C3 [compound 244, cyclo(FLac-NMeA-3Pal-Nle-Phe2F-Nle-NMe3Pal-amBCP)] (cyclo([3Pal][Nle][Phe(2-F)][Nle][NMe3Pal][X1][PhLac][NMeA]))	36
CCCC[C@@H]1NC(=O)[C@H](Cc2cccnc2)NC(=O)[C@H](CCN=[N+]=[N-])N(C)C(=O)[C@H](Cc2ccccc2)NC(=O)C23CC(CNC(=O)[C@H](Cc4cccnc4)N(C)C(=O)[C@H](CCCC)NC(=O)[C@H](Cc4ccccc4F)NC1=O)(C2)C3 [compound 245, cyclo(F-NMeDabN3-3Pal-Nle-Phe2F-Nle-NMe3Pal-amBCP)] (cyclo(F[NMeAha][3Pal][Nle][Phe(2-F)][Nle][NMe3Pal][X1]))	267
CCCC[C@@H]1NC(=O)[C@H](Cc2cncnc2)NC(=O)[C@H](CCCn2ccnc2)N(C)C(=O)[C@H](Cc2ccccc2)OC(=O)C23CC(CNC(=O)[C@H](Cc4cccnc4)N(C)C(=O)[C@H](CCCC)NC(=O)[C@H](Cc4ccccc4F)OC1=O)(C2)C3 [compound 246, cyclo(FLac-NMeNvalmid-PyrimAla-Nle-F2FLac-Nle-NMe3Pal-amBCP)] (cyclo([NMe3Pal][X1][PhLac][NMeNva(5-imidazol-1-yl)][Ala(pyrimidin-5-yl)][Nle][X2][Nle]))	1160
CCCC[C@@H]1NC(=O)[C@H](Cc2cccnc2)NC(=O)[C@H](CCN=[N+]=[N-])N(C)C(=O)[C@H](Cc2ccccc2)OC(=O)C23CC(CNC(=O)[C@H](Cc4cccnc4)N(C)C(=O)[C@H](CCCC)NC(=O)[C@H](Cc4ccccc4F)NC1=O)(C2)C3 [compound 249, cyclo(FLac-NMeDabN3-3Pal-Nle-Phe2F-Nle-NMe3Pal-amBCP)] (cyclo([3Pal][Nle][Phe(2-F)][Nle][NMe3Pal][X1][PhLac][NMeAha]))	87.6

Source: US20260001914A1, “MACROCYCLIC PEPTIDES TARGETING KRAS” (Merck Sharp & Dohme LLC, priority 2022, published 2026)
